Assay results published in US11719696B2, “Methods and compounds for diagnosing threonyl-tRNA synthetase-associated diseases and conditions” (The University of Vermont and State Agricultural College, priority 2012, dated 2023).
Blank lines part the entries; values can stand above or below the molecule they belong to.

Assays:
human TARS = assay: GTPase (GTP hydrolysis) assay; type: biochemical; details: for change in TARS GTPase activity upon treatment: 10 μM compound
[1] = test system: Human umbilical vein endothelial cells (HUVECs); assay: In vitro endothelial tube formation assay; type: cell-based
Method: In vitro Tube Formation Assay—Tube formation assays were performed as described (Arnaoutova and Kleinman 2010; Cassavaugh, Hale et al., 201). Human Umbilical Vein Endothelial Cells (HUVECs) were seeded in 48-well plates (1.5×10^4 cells/well) coated with 100 μl of Matrigel™ Basement Membrane Matrix Growth Factor Reduced (BD Biosciences, San Jose, Calif.) and incubated in Clonetics® EGM®-2 complete media (Lonza, Annandale, N.J.) or EGM®-2 with reduced serum (0.2% fetal bovine serum). Cells were incubated at 37° C. for 6 h then fixed in 10% formalin. Fixed samples were imaged by phase-contrast microscopy or stained with Oregon Green 488 Phalloidin (Molecular Probes, Eugene, Oreg.) then imaged with fluorescence microscopy (2× objective). Number of tubes and tube lengths (in pixels) were quantified using the Simple Neurite Tracer (Longair, Baker et al. 2011) plug-in on ImageJ software (NIH). Statistical analysis of one-way ANOVA was performed with GraphPad Software. Multiple comparisons were performed using the Tukey Test.

HUVECs [2] = assay: Endothelial cell proliferation assay (alamarBlue); type: cell-based, Human; details: 10 nM BC194 with 50 ng/ml VEGF, low serum media
Method: Endothelial Cell Proliferation Assay—The […] alamarBlue® (Invitrogen) reagent was used to assess cell proliferation (Ahmed, Gogal et al. 1994). HUVECs were seeded in a 96-well dish (1×10^3 cells/well) and grown for 48 h in EGM®-2 media. Cells were incubated in 0.2% FBS EGM®-2 media or EGM®-2 complete media as indicated; VEGF (50 ng/ml) and media alone served as controls. After 48 h, 72 h, or 96 h in culture, 10 μl/well premixed alamarBlue® (Invitrogen) was added and after 3 h at 37° C. the amount of reduced alamarBlue® was quantified by fluorescence (excitation at 530 nm, emission at 590 nm) on a microplate reader (Synergy™ HT, BioTek, Winooski, Vt.).

[3] = test system: chorioallantoic membrane (CAM); assay: Chick chorioallantoic membrane (CAM) assay; type: in vivo, chicken; details: for CAM vessel formation / vascularization on application of protein: purified protein applied daily to sponge on CAM, 72 h
Method: Chick Chorioallantoic Membrane Assay—Fertilized chicken eggs (Sunrise Farms, Catskill, N.Y.) day 1-2 post-laying were incubated in a humidified incubator at 37° C. for 72 h. Cleaned eggs were cracked and plated in a sterile 10 cm^2 tissue culture-treated dish and incubated at 37° C. for another 7 days. On developmental day 10, 1 mm sterile gelatin sponge pieces (Surgifoam®; Johnson & Johnson Wound Management, Somerville, N.J.) were placed within the outer one-third of the membrane between large vessels. 40 μg/ml human bFGF and 2 μg/ml human VEGF were used as pro-angiogenic control compounds; 100 μg/mL retinoic acid (Sigma-Aldrich, St. Louis, Mo.) diluted in phosphate-buffered saline (PBS) was used as an angiostatic control. All compounds were applied in 10 μl to the CAM every 24 h for 72 h. Images were taken using a Leica MZ6 stereomicroscope every 24 h. Compounds were scored according to a modified version of Intensity Scoring as previously described (Ribatti, Nico et al. 2006). Briefly, each experimental condition was given a blinded score from 0-5 based on the change in the extent of vessel convergence and formation in proximity to the sponge from day 0 to day 3. Total score is averaged individual experimental condition scores from at least 15 replicates.
Fertilized chicken embryos were cultured ex-ova and, starting at developmental day 10, agents were applied daily to gelfoam sponges on the CAM. Images were recorded daily over 72 h and scored blindly according to a modified version Intensity Scoring as previously described (Ribatti, Nico, 2006). Additional details regarding methods are provided in the Methods and Materials section of Example 1.

[4] = test system: SK-OV3 ovarian cancer cells; assay: HIF-1α stabilization in hypoxia (Western blot); type: cell-based, Human
Method: Co-Immunoprecipitation—Plasmids expressing biotinylatable TARS (pTARS) and myc-tagged VHL (pVHL) were transfected into HEK293 cells, and then extracts were prepared. Biotin-TARS was precipitated using streptavidin-coupled beads. Myc-VHL was precipitated using anti-myc antibodies. Precipitates were separated by SDS-PAGE, transferred and blots probed with anti-TARS antibody or anti-myc (VHL) antibody. Western blot—After treatments, cells were harvested into sample buffer containing: 0.2 M Tris-HCL, 4% SDS, 4% β-mercaptoethanol, 40% glycerol, 4 μM pyronin Y. Extracts were sheared through a 24-gauge syringe. Samples were separated by 10% SDS-PAGE and transferred to nitrocellulose membrane and probed with rabbit polyclonal anti-TARS (1:500; Santa Cruz Biotechnology, Dallas, Tex.) or monoclonal anti-HIF-1α (BD Transduction Laboratories, [BD Biosciences, San Jose, Calif.]) (Lounsbury, Beddow et al., 1994). […] Major bands and their empty vector counterparts were detected using SilverSNAP Stain Kit II (Pierce) and excised. […] Peptides were analyzed by electospray ionization (ESI) liquid chromatography mass spectrometry (LC-MS). […] Spectra were obtained using collision-induced dissociation with an LTQ linear quadrupole ion trap-Orbitrap mass spectrometer (Thermo Electro, San Jose, Calif.) and analyzed using SEQUEST (Bioworks software package, version 3.3.1; Thermo Electron, San Jose, Calif.). […]

HUVECs [5] = assay: TARS mRNA by quantitative RT-PCR; type: cell-based, Human; details: HUVECs exposed to 50 ng/ml
Method: Quantitative RT-PCR—Total RNA was extracted from cells using the RNeasy column protocol and cDNA was generated using an Omniscript reverse transcriptase assay according to the manufacturer's instructions (Qiagen, Frederick, Md.). Primers and probes for TARS and β2-microglobulin were Assays-on-Demand (Applied Biosystems, [Life Technologies, Carlsbad, Calif.]). RT-qPCR was performed using an ABI prism 7700 Sequence Detection System (Applied Biosystems). The relative quantity of mRNA level was determined using the comparative CT (ΔΔCT) method using β2-microglobulin to normalize mRNA level (Cassavaugh, Hale et al. 2011).

[6] = canonical substrate added to human TARS

decrease in GTPase activity (human TARS; [6]): 77%
Molecule: Nc1ncnc2c1ncn2[C@@H]1O[C@H](COP(=O)(O)OP(=O)(O)OP(=O)(O)O)[C@@H](O)[C@H]1O [ATP]

Molecule: C[C@@H]1C[C@H](C)C[C@H](C)[C@@H](O)CC(=O)O[C@H]([C@@H]2CC[C@H]2C(=O)O)C/C=C/C=C(/C#N)[C@H](O)[C@@H](C)C1 [BC194, reference compound]
tube length ([1]; HUVECs on Matrigel, range of BC194 concentrations, 6 h): unaffected
concentration required to affect tube formation relative to that required to detect unfolded protein response (phospho-eIF2a) and apoptosis (cleaved caspase-3) ([1]; fold lower): 100 fold
effect on VEGF proliferative response (HUVECs [2]): did not significantly reduce
CAM vessel formation with inhibitor ([3]; daily application to gel sponge, basal level and after stimulation with bFGF or VEGF): inhibited vessel formation
HIF-1α transcription [4]: no change
change in TARS GTPase activity upon treatment (human TARS): no observable change

Molecule: C[C@@H]1C[C@H](C)C[C@H](C)[C@@H](O)CC(=O)O[C@H]([C@@H]2CCC[C@H]2C(=O)O)C/C=C/C=C(/C#N)[C@H](O)[C@@H](C)C1 [borrelidin, reference compound]
HIF-1α transcription [4]: no change
change in TARS GTPase activity upon treatment (human TARS): no observable change

increase in GTPase activity (human TARS; [6]): 26%
Molecule: C[C@@H](O)[C@H](N)C(=O)O [threonine]

Molecule: LARS: N-terminal His6-tagged human leucyl tRNA synthetase purified from E. coli
CAM vessel formation / vascularization on application of protein [3]: no observable effect

Molecule: TNF-α
TARS transcription (TARS mRNA) (HUVECs [5]): do not induce TARS transcription

Molecule: VEGF
TARS transcription (TARS mRNA) (HUVECs [5]): do not induce TARS transcription

B1: L567V TARS: BC194-resistant (borrelidin-resistant) L567V mutant of human TARS (protein, UniProt P26639 1-723, looked up, variant L567V)
Threonine--tRNA ligase 1, …: MFEEKASSPSGKMGGEEKPIGAGEEKQKEGGKKKNKEGSGDGGRAELNPWPEYIYTRLEMYNILKAEHDSILAEKAEKDSKPIKVTLPDGKQVDAESWKTTPYQIACGISQGLADNTVIAKVNNVVWDLDRPLEEDCTLELLKFEDEEAQAVYWHSSAHIMGEAMERVYGGCLCYGPPIENGFYYDMYLEEGGVSSNDFSSLEALCKKIIKEKQAFERLEVKKETLLAMFKYNKFKCRILNEKVNTPTTTVYRCGPLIDLCRGPHVRHTGKIKALKIHKNSSTYWEGKADMETLQRIYGISFPDPKMLKEWEKFQEEAKNRDHRKIGRDQELYFFHELSPGSCFFLPKGAYIYNALIEFIRSEYRKRGFQEVVTPNIFNSRLWMTSGHWQHYSENMFSFEVEKELFALKPMNCPGHCLMFDHRPRSWRELPLRLADFGVLHRNELSGALTGLTRVRRFQQDDAHIFCAMEQIEDEIKGCLDFLRTVYSVFGFSFKLNLSTRPEKFLGDIEVWDQAEKQLENSLNEFGEKWELNSGDGAFYGPKIDIQIKDAIGRYHQCATIQLDFQVPIRFNLTYVSHDGDDKKRPVIVHRAILGSVERMIAILTENYGGKWPFWLSPRQVMVVPVGPTCDEYAQKVRQQFHDAKFMADIDLDPGCTLNKKIRNAQLAQYNFILVVGEKEKISGTVNIRTRDNKVHGERTISETIERLQQLKEFRSKQAEEEF
sensitivity of the protein's CAM angiogenic effect to BC194 ([3]; protein co-applied with BC194): not inhibited
CAM vessel formation / vascularization on application of protein [3]: stimulated vessel formation

B2: R442A TARS: aminoacylation-deficient human TARS mutant, active site Arg442 substituted with alanine (protein, UniProt P26639 1-723, looked up, variant R442A)
Threonine--tRNA ligase 1, …: MFEEKASSPSGKMGGEEKPIGAGEEKQKEGGKKKNKEGSGDGGRAELNPWPEYIYTRLEMYNILKAEHDSILAEKAEKDSKPIKVTLPDGKQVDAESWKTTPYQIACGISQGLADNTVIAKVNNVVWDLDRPLEEDCTLELLKFEDEEAQAVYWHSSAHIMGEAMERVYGGCLCYGPPIENGFYYDMYLEEGGVSSNDFSSLEALCKKIIKEKQAFERLEVKKETLLAMFKYNKFKCRILNEKVNTPTTTVYRCGPLIDLCRGPHVRHTGKIKALKIHKNSSTYWEGKADMETLQRIYGISFPDPKMLKEWEKFQEEAKNRDHRKIGRDQELYFFHELSPGSCFFLPKGAYIYNALIEFIRSEYRKRGFQEVVTPNIFNSRLWMTSGHWQHYSENMFSFEVEKELFALKPMNCPGHCLMFDHRPRSWRELPLRLADFGVLHANELSGALTGLTRVRRFQQDDAHIFCAMEQIEDEIKGCLDFLRTVYSVFGFSFKLNLSTRPEKFLGDIEVWDQAEKQLENSLNEFGEKWELNSGDGAFYGPKIDIQIKDAIGRYHQCATIQLDFQLPIRFNLTYVSHDGDDKKRPVIVHRAILGSVERMIAILTENYGGKWPFWLSPRQVMVVPVGPTCDEYAQKVRQQFHDAKFMADIDLDPGCTLNKKIRNAQLAQYNFILVVGEKEKISGTVNIRTRDNKVHGERTISETIERLQQLKEFRSKQAEEEF
CAM vessel formation / vascularization on application of protein [3]: virtually indistinguishable from wild type
